According to patent US9169260B2 (MERCK SHARP & DOHME CORP., priority 2011, dated 2015):
Like-named read-outs stand apart in the source and are kept apart here.

Target: GST tagged IRAK-4 (Homo sapiens (Human), UniProt Q9NWZ3)
Assay: IRAK-4 Kinase Assay (IMAP fluorescence polarization)
Type: biochemical
In short: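 Activity was read by IMAP fluorescence polarization, where phosphopeptide binding to M(III) nanoparticles raises FP. The 30-minute, 25° C reaction used 100 μM ATP, 100 nM RP7030 substrate and 0.5 nM GST-IRAK-4 in pH 7.2 Tris buffer with MgCl2, DTT and Tween 20.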

[1] = 100 μM ATP, 30 minutes at 25° C., μM
[2] = 100 μM ATP, 30 minutes at 25° C.

Chain of GST tagged IRAK-4 (Q9NWZ3 whole entry): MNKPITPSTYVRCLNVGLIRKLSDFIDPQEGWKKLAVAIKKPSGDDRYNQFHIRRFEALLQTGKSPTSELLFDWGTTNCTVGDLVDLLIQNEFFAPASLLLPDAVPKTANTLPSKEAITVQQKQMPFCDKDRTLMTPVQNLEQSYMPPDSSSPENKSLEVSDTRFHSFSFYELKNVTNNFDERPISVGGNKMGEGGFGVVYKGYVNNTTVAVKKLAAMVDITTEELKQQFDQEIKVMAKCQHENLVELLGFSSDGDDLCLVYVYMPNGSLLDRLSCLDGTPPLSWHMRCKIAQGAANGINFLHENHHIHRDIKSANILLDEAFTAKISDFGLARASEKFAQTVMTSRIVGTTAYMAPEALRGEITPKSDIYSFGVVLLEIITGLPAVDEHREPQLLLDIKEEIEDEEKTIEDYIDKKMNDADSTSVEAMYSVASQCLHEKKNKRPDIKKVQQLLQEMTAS

Compound	IC50 [1]	IC50 [2]	other results
Cc1ccc(-n2nc(C3CCN(S(C)(=O)=O)CC3)cc2NC(=O)c2cnn3cccnc23)cn1 [Example 168, N-(1-(6-methylpyridin-3-yl)-3-(1-(methylsulfonyl)piperidin-4-yl)-1H-pyrazol-5-yl)pyrazolo[1,5-a]pyrimidine-3-carboxamide]			IC50: < 1 µM
CS(=O)(=O)N1CCC(c2cc(NC(=O)c3cnn4cccnc34)n(-c3ccc(Cl)cc3F)n2)CC1 [Example 29, N-(1-(4-chloro-2-fluorophenyl)-3-(1-(methylsulfonyl)piperidin-4-yl)-1H-pyrazol-5-yl)pyrazolo[1,5-a]pyrimidine-3-carboxamide]	< 1 µM		
Cc1ccc(-n2nc(C3CCCN(CC4CC4)C3)cc2NC(=O)c2cnn3cccnc23)cc1 (stereo not shown) [Example 297, N-{3-[1-(cyclopropylmethyl)piperidin-3-yl]-1-(4-methylphenyl)-1H-pyrazol-5-yl}pyrazolo[1,5-a]pyrimidine-3-carboxamide]	< 1 µM		
CNC(=O)c1cccc(-c2cc(NC(=O)c3cnn4cccnc34)n(-c3ccc(C)cc3)n2)c1 [Example 350, N-{3-[3-(methylcarbamoyl)phenyl]-1-(4-methylphenyl)-1H-pyrazol-5-yl}pyrazolo[1,5-a]pyrimidine-3-carboxamide]	< 1 µM		
Cc1ccc(-n2nc(C3CCN(Cc4cccnc4)CC3)cc2NC(=O)c2cnn3cccnc23)cc1 [Example 225, N-{1-(4-methylphenyl)-3-[1-(pyridin-3-ylmethyl)piperidin-4-yl]-1H-pyrazol-5-yl}pyrazolo[1,5-a]pyrimidine-3-carboxamide]	< 1 µM		
Cc1ccc(-n2nc(C3CCCN(S(=O)(=O)C4CC4)C3)cc2NC(=O)c2cnn3cccnc23)cc1 (stereo not shown) [Example 44, N-(3-(1-(cyclopropylsulfonyl)piperidin-3-yl)-1-(p-tolyl)-1H-pyrazol-5-yl)pyrazolo[1,5-a]pyrimidine-3-carboxamide]	< 1 µM		
COc1ccc(-n2nc(C3CCN(S(=O)(=O)C(C)C)CC3)cc2NC(=O)c2cnn3cccnc23)cc1 [Example 23, N-(3-(1-(isopropylsulfonyl)piperidin-4-yl)-1-(4-methoxyphenyl)-1H-pyrazol-5-yl)pyrazolo[1,5-a]pyrimidine-3-carboxamide]		< 0.1 µM	
Cc1ccc(-n2nc(C3CCN(S(=O)(=O)c4ccc(N5CCOCC5)nc4)CC3)cc2NC(=O)c2cnn3cccnc23)cc1 [Example 383, N-[1-(4-methylphenyl)-3-{1-[(6-morpholin-4-ylpyridin-3-yl)sulfonyl]piperidin-4-yl}-1H-pyrazol-5-yl]pyrazolo[1,5-a]pyrimidine-3-carboxamide]	< 1 µM		
CNS(=O)(=O)c1ccc(-c2cc(NC(=O)c3cnn4cccnc34)n(-c3ccc(C)cc3F)n2)cc1 [Example 100, N-(1-(2-fluoro-4-methylphenyl)-3-(4-(N-methylsulfamoyl)phenyl)-1H-pyrazol-5-yl)pyrazolo[1,5-a]pyrimidine-3-carboxamide]		< 0.1 µM	
Cc1ccc(-n2nc(-c3ccc(S(=O)(=O)C4CC4)cc3)cc2NC(=O)c2cnn3cccnc23)cc1 [Example 336, N-{3-[4-(cyclopropylsulfonyl)phenyl]-1-(4-methylphenyl)-1H-pyrazol-5-yl}pyrazolo[1,5-a]pyrimidine-3-carboxamide]		< 0.1 µM	
CCN(CC)S(=O)(=O)c1ccc(-c2cc(NC(=O)c3cnn4cccnc34)n(-c3ccc(C)cc3)n2)cc1 [Example 343, N-{3-[4-(diethylsulfamoyl)phenyl]-1-(4-methylphenyl)-1H-pyrazol-5-yl}pyrazolo[1,5-a]pyrimidine-3-carboxamide]		< 0.1 µM	
Cc1ccc(-n2nc(C3CCN(C4Cc5ccccc5C4)CC3)cc2NC(=O)c2cnn3cccnc23)nc1 [Example 282, N-{3-[1-(2,3-dihydro-1H-inden-2-yl)piperidin-4-yl]-1-(5-methylpyridin-2-yl)-1H-pyrazol-5-yl}pyrazolo[1,5-a]pyrimidine-3-carboxamide]		< 0.1 µM	
N#Cc1ccc(-n2nc(C3CCNCC3)cc2NC(=O)c2cnn3cccnc23)cc1 [Example 12, N-(1-(4-cyanophenyl)-3-(piperidin-4-yl)-1H-pyrazol-5-yl)pyrazolo[1,5-a]pyrimidine-3-carboxamide]	> 1 µM		
Cc1ccc(-n2nc(C3CCN(S(C)(=O)=O)CC3)cc2NC(=O)c2cnn3cc(C#N)cnc23)cc1 [Example 121, 6-cyano-N-(3-(1-(methylsulfonyl)piperidin-4-yl)-1-(p-tolyl)-1H-pyrazol-5-yl)pyrazolo[1,5-a]pyrimidine-3-carboxamide]	< 1 µM		
Cc1ccc(-n2nc(C3CCN(Cc4cncs4)CC3)cc2NC(=O)c2cnn3cccnc23)cc1 [Example 229, N-{1-(4-methylphenyl)-3-[1-(1,3-thiazol-5-ylmethyl)piperidin-4-yl]-1H-pyrazol-5-yl}pyrazolo[1,5-a]pyrimidine-3-carboxamide]		< 0.1 µM	
O=C(Nc1cc(C2CCNCC2)nn1-c1ccc(C2CC2)cc1)c1cnn2cccnc12 [Example 52, N-(1-(4-cyclopropylphenyl)-3-(piperidin-4-yl)-1H-pyrazol-5-yl)pyrazolo[1,5-a]pyrimidine-3-carboxamide]		< 0.1 µM	

Compound	IC50 [1]	IC50 [2]	other results
O=C(Nc1cc(C2CCN(S(=O)(=O)C3CC3)CC2)nn1-c1ccc(C2CC2)cc1)c1cnn2cccnc12 [Example 54, N-(1-(4-cyclopropylphenyl)-3-(1-(cyclopropylsulfonyl)piperidin-4-yl)-1H-pyrazol-5-yl)pyrazolo[1,5-a]pyrimidine-3-carboxamide]	< 1 µM		
Cc1ccc(-n2nc(-c3cccc(NS(C)(=O)=O)c3)cc2NC(=O)c2cnn3cccnc23)cc1 [Example 346, N-[1-(4-methylphenyl)-3-{3-[(methylsulfonyl)amino]phenyl}-1H-pyrazol-5-yl]pyrazolo[1,5-a]pyrimidine-3-carboxamide]	< 1 µM		
Cc1ccc(-n2nc(C3CCN(C4CCC(C)C4)CC3)cc2NC(=O)c2cnn3cccnc23)nc1 (stereo not shown) [Example 272, N-{3-[1-(3-methylcyclopentyl)piperidin-4-yl]-1-(5-methylpyridin-2-yl)-1H-pyrazol-5-yl}pyrazolo[1,5-a]pyrimidine-3-carboxamide]		< 0.1 µM	
Cc1ccc(-n2nc(CC3CCOCC3)cc2NC(=O)c2cnn3cccnc23)cc1 [Example 45, N-(3-((tetrahydro-2H-pyran-4-yl)methyl)-1-(p-tolyl)-1H-pyrazol-5-yl)pyrazolo[1,5-a]pyrimidine-3-carboxamide]	< 1 µM		
Cc1ccc(-n2nc(-c3ccc(S(C)(=O)=O)cc3)cc2NC(=O)c2cnn3cccnc23)cc1 [Example 134, N-(3-(4-(methylsulfonyl)phenyl)-1-(p-tolyl)-1H-pyrazol-5-yl)pyrazolo[1,5-a]pyrimidine-3-carboxamide]		< 0.1 µM	
COc1cc(-c2cc(NC(=O)c3cnn4cccnc34)n(-c3ccc(C)cc3)n2)ccn1 [Example 129, N-(3-(2-methoxypyridin-4-yl)-1-(p-tolyl)-1H-pyrazol-5-yl)pyrazolo[1,5-a]pyrimidine-3-carboxamide]	< 1 µM		
Cc1ccc(-n2nc(C3CCC(C(=O)O)CC3)cc2NC(=O)c2cnn3cccnc23)cc1 (stereo not shown) [Example 94, 4-(5-(pyrazolo[1,5-a]pyrimidine-3-carboxamido)-1-(p-tolyl)-1H-pyrazol-3-yl)cyclohexanecarboxylic acid]	> 1 µM		
Cc1ccc(-n2nc(-c3ccc(CN4CCCC4)cc3)cc2NC(=O)c2cnn3cccnc23)cc1 [Example 143, N-(3-(4-(pyrrolidin-1-ylmethyl)phenyl)-1-(p-tolyl)-1H-pyrazol-5-yl)pyrazolo[1,5-a]pyrimidine-3-carboxamide]		< 0.1 µM	
Cc1ccc(-n2nc(C3CCN(C(=O)CO)CC3)cc2NC(=O)c2cnn3cc(Br)cnc23)cc1 [Example 112, 6-bromo-N-(3-(1-(2-hydroxyacetyl)piperidin-4-yl)-1-(p-tolyl)-1H-pyrazol-5-yl)pyrazolo[1,5-a]pyrimidine-3-carboxamide]	< 1 µM		
Cc1ccc(-n2nc(C3CCN(C4CC(C#N)C4)CC3)cc2NC(=O)c2cnn3cccnc23)cc1 (stereo not shown) [Example 258, N-{3-[1-(3-cyanocyclobutyl)piperidin-4-yl]-1-(4-methylphenyl)-1H-pyrazol-5-yl}pyrazolo[1,5-a]pyrimidine-3-carboxamide]		< 0.1 µM	
Cc1ccc(-n2nc(C3(C)CC3)cc2NC(=O)c2cnn3cccnc23)nc1 [Example 181, N-(3-(1-methylcyclopropyl)-1-(5-methylpyridin-2-yl)-1H-pyrazol-5-yl)pyrazolo[1,5-a]pyrimidine-3-carboxamide]	> 1 µM		
COc1ccc(-n2nc(C3CCN(S(=O)(=O)C4CC4)CC3)cc2NC(=O)c2cnn3cccnc23)c(F)c1 [Example 63, N-(3-(1-(cyclopropylsulfonyl)piperidin-4-yl)-1-(2-fluoro-4-methoxyphenyl)-1H-pyrazol-5-yl)pyrazolo[1,5-a]pyrimidine-3-carboxamide]		< 0.1 µM	
CCCS(=O)(=O)N1CCC(c2cc(NC(=O)c3cnn4cccnc34)n(-c3ccc(C)cc3)n2)CC1 [Example 361, N-{1-(4-methylphenyl)-3-[1-(propylsulfonyl)piperidin-4-yl]-1H-pyrazol-5-yl}pyrazolo[1,5-a]pyrimidine-3-carboxamide]	< 1 µM		
CCS(=O)(=O)N1CC(N2CCC(c3cc(NC(=O)c4cnn5cccnc45)n(-c4ccc(C)cc4)n3)CC2)C1 [Example 243, N-[3-{1-[1-(ethylsulfonyl)azetidin-3-yl]piperidin-4-yl}-1-(4-methylphenyl)-1H-pyrazol-5-yl]pyrazolo[1,5-a]pyrimidine-3-carboxamide]	< 1 µM		
CNS(=O)(=O)c1ccc(-c2cc(NC(=O)c3cnn4cccnc34)n(-c3ccc(C4CC4)cn3)n2)cc1 [Example 151, N-(1-(5-cyclopropylpyridin-2-yl)-3-(4-(N-methylsulfamoyl)phenyl)-1H-pyrazol-5-yl)pyrazolo[1,5-a]pyrimidine-3-carboxamide]		< 0.1 µM	
